SMILES strings stand for the structures.

Experiment [1] can be described thus: DRUGMATRIX: Phorbol Ester radioligand binding (ligand: [3H] PDBu). The class given is cell membranes, Mus musculus, ICR, Brain, Membrane. The following applies: Not Active = under 50% inhibition at 10 µM.
The target in experiment [2] is Vascular endothelial growth factor receptor 1 (Homo sapiens, UniProt P17948). The class given is cell-based. The conditions noted are these: huvec. Note: in other assays of this panel Not Active means under 50% inhibition at 10 µM.
Vascular endothelial growth factor receptor 1, sequence (P17948 whole entry): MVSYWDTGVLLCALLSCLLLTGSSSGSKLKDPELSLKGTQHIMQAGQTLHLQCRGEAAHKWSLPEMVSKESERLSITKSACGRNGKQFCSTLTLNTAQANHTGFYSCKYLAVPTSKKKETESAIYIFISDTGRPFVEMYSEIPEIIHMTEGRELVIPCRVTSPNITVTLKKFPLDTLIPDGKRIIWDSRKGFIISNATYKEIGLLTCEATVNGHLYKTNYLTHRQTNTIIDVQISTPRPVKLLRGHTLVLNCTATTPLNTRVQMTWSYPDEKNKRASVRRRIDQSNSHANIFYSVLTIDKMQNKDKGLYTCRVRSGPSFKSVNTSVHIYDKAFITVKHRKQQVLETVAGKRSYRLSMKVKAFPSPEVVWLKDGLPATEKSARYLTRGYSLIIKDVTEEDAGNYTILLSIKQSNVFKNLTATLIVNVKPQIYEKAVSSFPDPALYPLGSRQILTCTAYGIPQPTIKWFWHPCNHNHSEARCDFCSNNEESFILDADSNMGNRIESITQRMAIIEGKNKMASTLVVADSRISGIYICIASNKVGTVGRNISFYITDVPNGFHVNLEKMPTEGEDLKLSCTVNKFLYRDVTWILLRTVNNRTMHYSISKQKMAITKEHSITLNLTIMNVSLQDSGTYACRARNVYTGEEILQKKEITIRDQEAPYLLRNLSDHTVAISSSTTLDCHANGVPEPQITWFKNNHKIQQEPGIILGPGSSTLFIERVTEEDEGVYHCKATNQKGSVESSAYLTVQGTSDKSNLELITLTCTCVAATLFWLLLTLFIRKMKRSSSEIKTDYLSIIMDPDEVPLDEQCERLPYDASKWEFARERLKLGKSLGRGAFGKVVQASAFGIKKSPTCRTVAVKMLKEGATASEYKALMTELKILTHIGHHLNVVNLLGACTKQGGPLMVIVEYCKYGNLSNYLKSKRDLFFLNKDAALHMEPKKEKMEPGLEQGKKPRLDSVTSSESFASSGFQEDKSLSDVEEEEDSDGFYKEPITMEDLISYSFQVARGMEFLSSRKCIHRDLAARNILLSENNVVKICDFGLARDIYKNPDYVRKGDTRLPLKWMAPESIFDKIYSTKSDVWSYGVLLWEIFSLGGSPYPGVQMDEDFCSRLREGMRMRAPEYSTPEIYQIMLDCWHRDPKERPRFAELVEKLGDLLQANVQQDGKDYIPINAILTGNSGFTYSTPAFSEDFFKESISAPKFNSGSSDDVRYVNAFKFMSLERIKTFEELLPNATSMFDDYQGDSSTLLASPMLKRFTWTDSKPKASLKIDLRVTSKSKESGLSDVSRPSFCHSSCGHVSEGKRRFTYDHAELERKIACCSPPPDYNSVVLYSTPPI
The target in experiment [3] is T1, Alpha-2C adrenergic receptor (Homo sapiens, UniProt P18825).
T1 sequence (P18825 whole entry): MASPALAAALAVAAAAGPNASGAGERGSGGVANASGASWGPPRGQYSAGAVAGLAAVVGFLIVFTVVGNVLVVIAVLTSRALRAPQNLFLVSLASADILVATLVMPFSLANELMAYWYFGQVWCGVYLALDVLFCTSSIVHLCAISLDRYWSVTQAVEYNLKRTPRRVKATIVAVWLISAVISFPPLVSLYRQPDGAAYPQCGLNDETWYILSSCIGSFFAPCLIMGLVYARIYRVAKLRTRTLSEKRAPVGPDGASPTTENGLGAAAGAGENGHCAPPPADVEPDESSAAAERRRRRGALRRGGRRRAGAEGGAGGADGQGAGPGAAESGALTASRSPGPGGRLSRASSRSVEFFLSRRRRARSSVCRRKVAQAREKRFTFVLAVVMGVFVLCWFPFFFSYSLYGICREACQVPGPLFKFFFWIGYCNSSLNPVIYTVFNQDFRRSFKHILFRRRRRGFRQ
The experiment in a line: DRUGMATRIX: Adrenergic Alpha-2C radioligand binding (ligand: [3H] MK-912). Type of experiment: cell membranes, Sf9, Membrane.

Experiment [4] concerns the target T2, Muscarinic acetylcholine receptor M4 (Homo sapiens, UniProt P08173). Note: in other assays of this panel Not Active means under 50% inhibition at 10 µM.
T2 sequence (P08173 whole entry): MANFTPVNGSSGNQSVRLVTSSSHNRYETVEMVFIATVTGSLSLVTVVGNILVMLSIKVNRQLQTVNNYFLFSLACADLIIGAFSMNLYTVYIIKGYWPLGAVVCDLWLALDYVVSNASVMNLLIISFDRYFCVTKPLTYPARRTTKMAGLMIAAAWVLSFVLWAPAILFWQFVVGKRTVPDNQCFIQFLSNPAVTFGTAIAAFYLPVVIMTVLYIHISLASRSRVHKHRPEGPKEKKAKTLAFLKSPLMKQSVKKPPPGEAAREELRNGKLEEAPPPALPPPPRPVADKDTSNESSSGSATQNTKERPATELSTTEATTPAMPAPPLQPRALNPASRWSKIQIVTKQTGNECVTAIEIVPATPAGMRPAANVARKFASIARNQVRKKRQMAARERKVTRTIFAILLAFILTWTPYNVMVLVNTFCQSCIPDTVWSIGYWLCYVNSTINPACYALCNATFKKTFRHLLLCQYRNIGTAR
Type of experiment: cell membranes, CHO-K1, Membrane.

A short description of experiment [5]: DRUGMATRIX: Purinergic P2X radioligand binding (ligand: [3H] alpha, beta-Methylene-ATP). Type of experiment: cell membranes, Oryctolagus cuniculus, New Zealand albino, Urinary bladder, Membrane. The following applies: Not Active = under 50% inhibition at 10 µM.
A further experiment deals with T3, Substance-K receptor (Homo sapiens, UniProt P21452).
T3 sequence (P21452 whole entry): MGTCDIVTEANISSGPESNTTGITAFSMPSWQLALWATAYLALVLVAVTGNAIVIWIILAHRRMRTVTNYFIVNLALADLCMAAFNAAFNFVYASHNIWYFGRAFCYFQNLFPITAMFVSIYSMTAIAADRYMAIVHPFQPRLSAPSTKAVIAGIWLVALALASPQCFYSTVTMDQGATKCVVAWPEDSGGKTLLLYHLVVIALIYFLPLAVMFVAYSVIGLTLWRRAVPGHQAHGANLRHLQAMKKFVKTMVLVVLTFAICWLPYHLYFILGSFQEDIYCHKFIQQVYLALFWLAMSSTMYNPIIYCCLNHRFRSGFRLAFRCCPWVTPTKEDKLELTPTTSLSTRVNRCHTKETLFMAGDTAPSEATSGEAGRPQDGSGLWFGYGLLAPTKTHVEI
The class given is cell membranes, CHO, Membrane. The following applies: cho.

A short description of experiment [6]: DRUGMATRIX: ATPase, Na+/K+ enzyme inhibition (substrate: ATP). Type of experiment: tissue-based, Sus scrofa, Heart. The conditions noted are these: Not Active = under 50% inhibition at 10 µM.

One may read the IC50 as the concentration at which inhibition is half-maximal. In general, Ki refers to a dissociation constant, usually derived from enzyme kinetics or from competition with a known ligand. As for `COc1cc(/C=C/C(=O)O)ccc1O` [FERULATE], the IC50 entry (in experiment [1]; in experiment [2]; in experiment [3] (sf9); in experiment [4] (cho-k1); in experiment [5]; on Substance-K receptor) was “Not Active” in each case. The half-maximal inhibitory concentration (IC50) result in experiment [6] is reported as “Not Active”. Moreover, the Ki entry in experiment [1], in experiment [5] and in experiment [6] was “Not Active” in each case.

For the molecule `CC(C)(C#N)c1cc(Cn2cncn2)cc(C(C)(C)C#N)c1` [ANASTROZOLE], the IC50 result (in experiment [1]; in experiment [2]; in experiment [3] (sf9); in experiment [4] (cho-k1); in experiment [5]; against Substance-K receptor) was “Not Active” in each case. In addition, in experiment [6], the IC50 entry is “Not Active”. In addition, the Ki result in experiment [1], in experiment [5] and in experiment [6] was “Not Active” each time.

In the case of `COc1ccc(Cl)cc1C(=O)NCCc1ccc(S(=O)(=O)NC(=O)NC2CCCCC2)cc1` [GLYBURIDE], the IC50 entry (in experiment [1]; in experiment [2]; in experiment [3] (sf9); in experiment [4] (cho-k1); in experiment [5]; on Substance-K receptor) was “Not Active” throughout. Also, the 50% inhibitory concentration (IC50) entry in experiment [6] is “Not Active”. For the same molecule, the Ki entry in experiment [1], in experiment [5] and in experiment [6] was “Not Active” throughout.

For `CC(C)NCC(O)COc1ccc(CC(N)=O)cc1` (stereo not given) [ATENOLOL], the half-maximal inhibitory concentration (IC50) result (in experiment [1]; in experiment [2]; in experiment [3] (sf9); in experiment [4] (cho-k1); in experiment [5]; at Substance-K receptor) was “Not Active” each time. Also, in experiment [6], the 50% inhibitory concentration (IC50) result is on record as “Not Active”. Moreover, the Ki entry in experiment [1], in experiment [5] and in experiment [6] was “Not Active” each time.

For the molecule `O=C(O)COC(=O)Cc1ccccc1Nc1c(Cl)cccc1Cl` [ACECLOFENAC], the 50% inhibitory concentration (IC50) entry (in experiment [1]; in experiment [2]; in experiment [3] (sf9); in experiment [4] (cho-k1); in experiment [5]; against Substance-K receptor) was “Not Active” each time. The IC50 result in experiment [6] is reported as “Not Active”. The Ki result in experiment [1], in experiment [5] and in experiment [6] was “Not Active” each time.

Regarding `Cl.NC[C@H]1CC[C@H](C(=O)Oc2ccc(CCC(=O)O)cc2)CC1` [CETRAXATE HYDROCHLORIDE], the 50% inhibitory concentration (IC50) result (in experiment [1]; in experiment [2]; in experiment [3] (sf9); in experiment [4] (cho-k1); in experiment [5]; at Substance-K receptor) was “Not Active” throughout. Also, the IC50 entry in experiment [6] was “Not Active”. Besides, the Ki result in experiment [1], in experiment [5] and in experiment [6] was “Not Active” in each case.

Turning to `CC(=O)[C@]1(O)Cc2c(O)c3c(c(O)c2[C@@H](O[C@H]2C[C@H](N)[C@H](O)[C@H](C)O2)C1)C(=O)c1ccccc1C3=O` [IDARUBICIN], the IC50 result (in experiment [1]; in experiment [2]; in experiment [3] (sf9); in experiment [4] (cho-k1); in experiment [5]; at Substance-K receptor) was “Not Active” in each case. In addition, in experiment [6], the IC50 result is “Not Active”. Besides, the Ki entry in experiment [1], in experiment [5] and in experiment [6] was “Not Active” in each case.

With `C[C@@H]1[C@H](O)[C@@H](C)/C=C/C=C/C=C/C=C/C=C/C=C/C=C/[C@H](O[C@@H]2O[C@H](C)[C@@H](O)[C@H](N)[C@@H]2O)C[C@@H]2O[C@](O)(C[C@@H](O)C[C@@H](O)[C@H](O)CC[C@@H](O)C[C@@H](O)CC(=O)O[C@H]1C)C[C@H](O)[C@H]2C(=O)O` [AMPHOTERICIN B], the IC50 result (in experiment [1]; in experiment [2]; in experiment [3] (sf9); in experiment [4] (cho-k1); in experiment [5]; against Substance-K receptor) was “Not Active” throughout. Besides, the IC50 result in experiment [6] is listed as “Not Active”. Also, the Ki result in experiment [1], in experiment [5] and in experiment [6] was “Not Active” in each case.

`O=C(O)c1ccccc1` [BENZOIC ACID]: the IC50 result (in experiment [1]; in experiment [2]; in experiment [3] (sf9); in experiment [4] (cho-k1); in experiment [5]; against Substance-K receptor) was “Not Active” each time. Also, the IC50 result in experiment [6] is recorded as “Not Active”. For the same molecule, the Ki result in experiment [1], in experiment [5] and in experiment [6] was “Not Active” throughout.

Consider `C[C@]12CC[C@@H](O)C[C@@H]1CC[C@@H]1[C@@H]2CC[C@]2(C)C(=O)CC[C@@H]12` [ANDROSTERONE], for which the IC50 result (in experiment [1]; in experiment [2]; in experiment [3] (sf9); in experiment [4] (cho-k1); in experiment [5]; at Substance-K receptor) was “Not Active” in each case. In addition, in experiment [6], the IC50 result is reported as “Not Active”. Moreover, the Ki entry in experiment [1], in experiment [5] and in experiment [6] was “Not Active” in each case.

With `NCC(CC(=O)O)c1ccc(Cl)cc1` (stereo not given) [BACLOFEN], the half-maximal inhibitory concentration (IC50) result (in experiment [1]; in experiment [2]; in experiment [3] (sf9); in experiment [4] (cho-k1); in experiment [5]; against Substance-K receptor) was “Not Active” each time. Moreover, the IC50 entry in experiment [6] was “Not Active”. Moreover, the Ki result in experiment [1], in experiment [5] and in experiment [6] was “Not Active” each time.

Turning to `O=C(O)CO` [GLYCOLIC ACID], the IC50 result (in experiment [1]; in experiment [2]; in experiment [3] (sf9); in experiment [4] (cho-k1); in experiment [5]; against Substance-K receptor) was “Not Active” each time. The IC50 result in experiment [6] was “Not Active”. The Ki result in experiment [1], in experiment [5] and in experiment [6] was “Not Active” in each case.

As for `COc1ccccc1OCCNCC(O)COc1cccc2[nH]c3ccccc3c12` (stereo not given) [CARVEDILOL], the IC50 entry in experiment [1] was “Not Active”; in experiment [2], “Not Active”; in experiment [3] (read-out: IC50), 90 nM; in experiment [4] (cho-k1), “Not Active”; in experiment [5] it was “Not Active”; on Substance-K receptor, “Not Active”. The IC50 result in experiment [6] is “Not Active”. The Ki result in experiment [1] is “Not Active”; in experiment [3] (read-out: Ki), 13 nM; in experiment [5], “Not Active”; in experiment [6] it was “Not Active”.

As to `O=C(NCCN1CCOCC1)c1ccc(Cl)cc1` [MOCLOBEMIDE], the half-maximal inhibitory concentration (IC50) entry (in experiment [1]; in experiment [2]; in experiment [3] (sf9); in experiment [4] (cho-k1); in experiment [5]; on Substance-K receptor) was “Not Active” each time. Further, in experiment [6], the IC50 entry is recorded as “Not Active”. Also, the Ki result in experiment [1], in experiment [5] and in experiment [6] was “Not Active” each time.

For `CNC[C@H](O)c1ccc(O)c(O)c1` [EPINEPHRINE], the IC50 entry (in experiment [1]; in experiment [2]; in experiment [4] (cho-k1); in experiment [5]; against Substance-K receptor; in experiment [6]) was “Not Active” each time. In addition, the Ki entry in experiment [1], in experiment [5] and in experiment [6] was “Not Active” in each case.

Turning to `Cc1cc(C(C)(C)C)c(O)c(C)c1CC1=NCCN1` [OXYMETAZOLINE], the IC50 result in experiment [1] was “Not Active”; in experiment [2], “Not Active”; in experiment [4] (read-out: IC50), 3260 nM; in experiment [5], “Not Active”; against Substance-K receptor, “Not Active”; in experiment [6], “Not Active”. Further, the Ki entry was “Not Active” in experiment [1], 455 nM in experiment [4] (read-out: Ki), “Not Active” in experiment [5] and “Not Active” in experiment [6].

(Values after ChEMBL document CHEMBL1909046, “DrugMatrix in vitro pharmacology data”.)
